Results reported in US8987195B2 (priority 2012, dated 2015).
Like-named read-outs stand apart in the source and are kept apart here.

Legend:
[1] = target: HCV NS3/4A protease genotype 1b (Hepatitis C virus genotype 1b, UniProt P26663); assay: HCV NS3/4A protease time-resolved fluorescence (TRF) assay, Ki against genotype 1b; format: biochemical; settings: IC50 [gt-1b] (nM), NS3/4A genotype 1b, enzyme 0.2 nM
Outline: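 Enzyme 0.2 nM 1b / 0.4 nM A156T / 0.025 nM 3a; 30 min preinc. w/ cpd; 25 nM TRF peptide; 2.5 h RT; ex 340/em 615 time-delayed; 4-param IC50 → Ki = IC50/(1+[S]/KM).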

[2] = system: HCV genotype 1b replicon; assay: HCV replicon assay, genotype 1b replicon EC50; format: cell-based, Hepatitis C virus; settings: Hepatitis C virus, genotype 1b replicon, read-out: EC50 [gt-1b]
Outline: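 Potency comes from a four-parameter fit of signal as percent of DMSO control. Replicon-bearing cells were treated 24-48 hours with a compound dilution series in absence of G418, and replicon RNA was quantified normalized to cyclophilin A RNA, or luciferase read.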

Structure (SMILES) | IC50 [1] [nM] | EC50 [2] [nM] | IC50 ([1]; K+ salt) [nM] | EC50 ([2]; K+ salt) [nM]
Cc1nc2cc(F)c(F)cc2c2c1O[C@]1(CC2)C[C@H]2C(=O)N[C@]3(C(=O)NS(=O)(=O)C4(C)CC4)C[C@H]3/C=C\CCCCC[C@H](NC(=O)OCC3CCC3)C(=O)N2C1 [Example 225, cyclobutylmethyl [(2R,6S,12Z,13aS,14aR,16aS)-8′,9′-difluoro-5′-methyl-14a-{[(1-methylcyclopropyl)sulfonyl]carbamoyl}-5,16-dioxo-1,1′,2′,5,6,7,8,9,10,11,13a,14,14a,15,16,16a-hexadecahydrospiro[cyclopropa[e]pyrrolo[1,2-a][1,4]diazacyclopentadecine-2,3′-pyrano[2,3-c]quinolin]-6-yl]carbamate] | 0.031 | 12.5 |  | 
Cc1nc2ccc(OC(F)(F)F)cc2c2c1O[C@]1(CC2)C[C@H]2C(=O)N[C@]3(C(=O)NS(=O)(=O)C4(C)CC4)C[C@H]3/C=C\CCCCC[C@H](NC(=O)OC(C)(C)CCS(C)(=O)=O)C(=O)N2C1 [Example 226, 2-methyl-4-(methylsulfonyl)butan-2-yl [(2R,6S,12Z,13aS,14aR,16aS)-5′-methyl-14a-{[(1-methylcyclopropyl)sulfonyl]carbamoyl}-5,16-dioxo-9′-(trifluoromethoxy)-1,1′,2′,5,6,7,8,9,10,11,13a,14,14a,15,16,16a-hexadecahydrospiro[cyclopropa[e]pyrrolo[1,2-a][1,4]diazacyclopentadecine-2,3′-pyrano[2,3-c]quinolin]-6-yl]carbamate] |  |  | 0.021 | 18
Cc1nc2ccc(OC(F)(F)F)cc2c2c1O[C@@]1(C[C@H]3C(=O)N[C@]4(C(=O)NS(=O)(=O)C5(C)CC5)C[C@H]4/C=C\CCCCC[C@H](NC(=O)OC4CCCC4)C(=O)N3C1)CC2(F)F [Example 227, cyclopentyl [(2S,6S,12Z,13aS,14aR,16aS)-1′,1′-difluoro-5′-methyl-14a-{[(1-methylcyclopropyl)sulfonyl]carbamoyl}-5,16-dioxo-9′-(trifluoromethoxy)-1,1′,2′,5,6,7,8,9,10,11,13a,14,14a,15,16,16a-hexadecahydrospiro[cyclopropa[e]pyrrolo[1,2-a][1,4]diazacyclopentadecine-2,3′-pyrano[2,3-c]quinolin]-6-yl]carbamate] |  |  | 0.043 | 28.4
Cc1nc2ccccc2c2c1O[C@]1(CC2)C[C@H]2C(=O)N[C@]3(C(=O)NS(=O)(=O)C4(C)CC4)C[C@H]3/C=C\CCCCC[C@H](NC(=O)N(C)C)C(=O)N2C1 [Example 228, (2R,6S,12Z,13aS,14aR,16aS)-6-[(dimethylcarbamoyl)amino]-5′-methyl-N-[(1-methylcyclopropyl)sulfonyl]-5,16-dioxo-1,1′,2′,6,7,8,9,10,11,13a,14,15,16,16a-tetradecahydrospiro[cyclopropa[e]pyrrolo[1,2-a][1,4]diazacyclopentadecine-2,3′-pyrano[2,3-c]quinoline]-14a(5H)-carboxamide] | 0.025 | 6.63 |  | 
Cc1nc2ccccc2c2c1O[C@]1(CC2)C[C@H]2C(=O)N[C@]3(C(=O)NS(=O)(=O)C4(C)CC4)C[C@H]3/C=C\CCCCC[C@H](NS(C)(=O)=O)C(=O)N2C1 [Example 229, (2R,6S,12Z,13aS,14aR,16aS)-5′-methyl-N-[(1-methylcyclopropyl)sulfonyl]-6-[(methylsulfonyl)amino]-5,16-dioxo-1,1′,2′,6,7,8,9,10,11,13a,14,15,16,16a-tetradecahydrospiro[cyclopropa[e]pyrrolo[1,2-a][1,4]diazacyclopentadecine-2,3′-pyrano[2,3-c]quinoline]-14a(5H)-carboxamide] | 0.122 | 14.6 |  | 
Cc1nc2ccccc2c2c1O[C@]1(CC2)C[C@H]2C(=O)N[C@]3(C(=O)NS(=O)(=O)C4(C)CC4)C[C@H]3/C=C\CCCCC[C@H](NS(=O)(=O)C3CC3)C(=O)N2C1 [Example 230, (2R,6S,12Z,13aS,14aR,16aS)-6-[(cyclopropylsulfonyl)amino]-5′-methyl-N-[(1-methylcyclopropyl)sulfonyl]-5,16-dioxo-1,1′,2′,6,7,8,9,10,11,13a,14,15,16,16a-tetradecahydrospiro[cyclopropa[e]pyrrolo[1,2-a][1,4]diazacyclopentadecine-2,3′-pyrano[2,3-c]quinoline]-14a(5H)-carboxamide] | 0.265 | 57.8 |  | 
Cc1nc2ccc(Cl)cc2c2c1O[C@]1(CC2)C[C@H]2C(=O)N[C@]3(C(=O)NS(=O)(=O)C4(C)CC4)C[C@H]3/C=C\CCCCC[C@H](NC(=O)OCC3CCCC3)C(=O)N2C1 [Example 231, cyclopentylmethyl [(2R,6S,12Z,13aS,14aR,16aS)-9′-chloro-5′-methyl-14a-{[(1-methylcyclopropyl)sulfonyl]carbamoyl}-5,16-dioxo-1,1′,2′,5,6,7,8,9,10,11,13a,14,14a,15,16,16a-hexadecahydrospiro[cyclopropa[e]pyrrolo[1,2-a][1,4]diazacyclopentadecine-2,3′-pyrano[2,3-c]quinolin]-6-yl]carbamate] | 0.024 | 4.77 |  | 
Cc1nc2cc(F)c(F)cc2c2c1O[C@]1(CC2)C[C@H]2C(=O)N[C@]3(C(=O)NS(=O)(=O)C4(C)CC4)C[C@H]3/C=C\CCCCC[C@H](NC(=O)OCC3CCCC3)C(=O)N2C1 [Example 232, cyclopentylmethyl [(2R,6S,12Z,13aS,14aR,16aS)-8′,9′-difluoro-5′-methyl-14a-{[(1-methylcyclopropyl)sulfonyl]carbamoyl}-5,16-dioxo-1,1′,2′,5,6,7,8,9,10,11,13a,14,14a,15,16,16a-hexadecahydrospiro[cyclopropa[e]pyrrolo[1,2-a][1,4]diazacyclopentadecine-2,3′-pyrano[2,3-c]quinolin]-6-yl]carbamate] | 0.085 | 12.9 |  | 
Cc1nc2cc(Cl)ccc2c2c1O[C@]1(CC2)C[C@H]2C(=O)N[C@]3(C(=O)NS(=O)(=O)C4(C)CC4)C[C@H]3/C=C\CCCCC[C@H](NC(=O)OC(C)(C)C)C(=O)N2C1 [Example 233, tert-butyl [(2R,6S,12Z,13aS,14aR,16aS)-8′-chloro-5′-methyl-14a-{[(1-methylcyclopropyl)sulfonyl]carbamoyl}-5,16-dioxo-1,1′,2′,5,6,7,8,9,10,11,13a,14,14a,15,16,16a-hexadecahydrospiro[cyclopropa[e]pyrrolo[1,2-a][1,4]diazacyclopentadecine-2,3′-pyrano[2,3-c]quinolin]-6-yl]carbamate] | 0.051 | 1.51 |  | 
Cc1nc2cc(Cl)ccc2c2c1O[C@]1(CC2)C[C@H]2C(=O)N[C@]3(C(=O)NS(=O)(=O)C4(C)CC4)C[C@H]3/C=C\CCCCC[C@H](NC(=O)OCC(C)C)C(=O)N2C1 [Example 234, 2-methylpropyl [(2R,6S,12Z,13aS,14aR,16aS)-8′-chloro-5′-methyl-14a-{[(1-methylcyclopropyl)sulfonyl]carbamoyl}-5,16-dioxo-1,1′,2′,5,6,7,8,9,10,11,13a,14,14a,15,16,16a-hexadecahydrospiro[cyclopropa[e]pyrrolo[1,2-a][1,4]diazacyclopentadecine-2,3′-pyrano[2,3-c]quinolin]-6-yl]carbamate] |  |  | 0.025 | 4.48
Cc1nc2cc(Cl)ccc2c2c1O[C@]1(CC2)C[C@H]2C(=O)N[C@]3(C(=O)NS(=O)(=O)C4(C)CC4)C[C@H]3/C=C\CCCCC[C@H](NC(=O)OCC(C)(C)C)C(=O)N2C1 [Example 235, 2,2-dimethylpropyl [(2R,6S,12Z,13aS,14aR,16aS)-8′-chloro-5′-methyl-14a-{[(1-methylcyclopropyl)sulfonyl]carbamoyl}-5,16-dioxo-1,1′,2′,5,6,7,8,9,10,11,13a,14,14a,15,16,16a-hexadecahydrospiro[cyclopropa[e]pyrrolo[1,2-a][1,4]diazacyclopentadecine-2,3′-pyrano[2,3-c]quinolin]-6-yl]carbamate] |  |  | 0.027 | 4.31
Cc1nc2cc(Cl)ccc2c2c1O[C@]1(CC2)C[C@H]2C(=O)N[C@]3(C(=O)NS(=O)(=O)C4(C)CC4)C[C@H]3/C=C\CCCCC[C@H](NC(=O)OC3(C)CC3)C(=O)N2C1 [Example 236, 1-methylcyclopropyl [(2R,6S,12Z,13aS,14aR,16aS)-8′-chloro-5′-methyl-14a-{[(1-methylcyclopropyl)sulfonyl]carbamoyl}-5,16-dioxo-1,1′,2′,5,6,7,8,9,10,11,13a,14,14a,15,16,16a-hexadecahydrospiro[cyclopropa[e]pyrrolo[1,2-a][1,4]diazacyclopentadecine-2,3′-pyrano[2,3-c]quinolin]-6-yl]carbamate] |  |  | 0.056 | 7.24
Cc1nc2cc(Cl)ccc2c2c1O[C@]1(CC2)C[C@H]2C(=O)N[C@]3(C(=O)NS(=O)(=O)C4(C)CC4)C[C@H]3/C=C\CCCCC[C@H](NC(=O)OC(C)C)C(=O)N2C1 [Example 237, propan-2-yl [(2R,6S,12Z,13aS,14aR,16aS)-8′-chloro-5′-methyl-14a-{[(1-methylcyclopropyl)sulfonyl]carbamoyl}-5,16-dioxo-1,1′,2′,5,6,7,8,9,10,11,13a,14,14a,15,16,16a-hexadecahydrospiro[cyclopropa[e]pyrrolo[1,2-a][1,4]diazacyclopentadecine-2,3′-pyrano[2,3-c]quinolin]-6-yl]carbamate] | 0.04 | 5.72 |  | 
